ChEMBL document CHEMBL1144524, “Discovery of 7alpha-substituted dihydrotestosterones as androgen receptor pure antagonists and their structure-activity relationships” (Bioorg Med Chem, 2007)
pIC50: −log10 of the molar value. Activity calls are given as the source filed them. No cut-off for these calls is given here.

Experiments:
Androgen receptor [1] = target: T1, Androgen receptor (Homo sapiens, UniProt P10275)
T1 sequence (P10275 whole entry): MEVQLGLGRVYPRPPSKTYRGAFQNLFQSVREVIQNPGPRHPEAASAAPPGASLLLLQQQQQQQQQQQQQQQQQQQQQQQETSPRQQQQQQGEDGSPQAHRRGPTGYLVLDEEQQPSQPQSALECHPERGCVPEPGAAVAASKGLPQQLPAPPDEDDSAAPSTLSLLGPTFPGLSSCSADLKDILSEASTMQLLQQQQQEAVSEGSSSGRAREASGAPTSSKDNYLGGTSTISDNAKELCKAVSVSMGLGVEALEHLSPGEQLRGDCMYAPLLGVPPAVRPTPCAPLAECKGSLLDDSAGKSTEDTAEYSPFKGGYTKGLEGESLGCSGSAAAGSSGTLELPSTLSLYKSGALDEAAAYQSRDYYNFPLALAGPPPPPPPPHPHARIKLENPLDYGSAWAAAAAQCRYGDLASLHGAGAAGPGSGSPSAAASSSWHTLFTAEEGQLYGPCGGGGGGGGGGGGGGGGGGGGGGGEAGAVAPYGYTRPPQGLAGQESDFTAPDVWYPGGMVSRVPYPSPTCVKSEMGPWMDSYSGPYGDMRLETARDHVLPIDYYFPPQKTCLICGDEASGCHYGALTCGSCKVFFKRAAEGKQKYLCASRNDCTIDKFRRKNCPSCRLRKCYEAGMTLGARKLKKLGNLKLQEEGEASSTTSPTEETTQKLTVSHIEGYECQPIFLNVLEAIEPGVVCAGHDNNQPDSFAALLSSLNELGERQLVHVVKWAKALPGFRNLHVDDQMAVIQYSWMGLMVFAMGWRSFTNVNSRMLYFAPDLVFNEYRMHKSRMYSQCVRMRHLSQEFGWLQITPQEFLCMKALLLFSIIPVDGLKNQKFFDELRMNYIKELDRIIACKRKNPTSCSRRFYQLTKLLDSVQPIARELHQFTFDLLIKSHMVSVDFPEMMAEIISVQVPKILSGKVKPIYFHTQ
Description: Antagonist activity at androgen receptor expressed in HeLa cells assessed as inhibition of dihydrotestosterone-induced transcriptional activity by reporter gene assay

[2] = target: T2, Androgen receptor (Homo sapiens) (UniProt P10275); details: HeLa
T2 sequence (whole entry): T1 sequence (P10275 whole entry)
Description: Agonist activity at androgen receptor expressed in HeLa cells assessed as effect on dihydrotestosterone-induced transcriptional activity by reporter gene assay

Androgen receptor [3] = target: T1, Androgen receptor; experiment: biochemical
Description: Displacement of [3H]mibolerone from androgen receptor expressed in CHOK1 cells

Mus musculus [4] = experiment: Effect on po dosed seminal vesicle wet weight in mouse; format: functional, organism-based
Mus musculus [5] = experiment: Effect on subcutaneously dosed seminal vesicle wet weight in mouse; format: functional, organism-based

SMILES	pIC50 (Androgen receptor [1])	FI5 [2] [nM]	pIC50 (Androgen receptor [3])	Activity (Mus musculus [4])	Activity (Mus musculus [5])
CCCN(C)C(=O)CCCCCCCC1C[C@H]2CC(=O)CC[C@]2(C)[C@H]2CC[C@]3(C)[C@@H](O)CC[C@H]3[C@H]12 (some centres not stated)	5.96	> 10000	6.52		
CCNC(=O)CCCCCCCC1C[C@H]2CC(=O)CC[C@]2(C)[C@H]2CC[C@]3(C)[C@@H](O)CC[C@H]3[C@H]12 (some centres not stated)	6.03	> 10000	5.82		
C[C@]12CC[C@H]3[C@@H]([C@H](CCCCCCCCC[S+]([O-])CCCC(F)(F)C(F)(F)F)CC4CC(=O)CC[C@@]43C)[C@@H]1CC[C@@H]2O (some centres not stated)	5.54	490	6.96		
CCN(C)C(=O)CCCCCCCC1C[C@H]2CC(=O)CC[C@]2(C)[C@H]2CC[C@]3(C)[C@@H](O)CC[C@H]3[C@H]12 (some centres not stated)	6.38	> 10000	6.18		
C[C@]12CCC(=O)C[C@@H]1CC(CCCCCCCC(=O)N1CCCCC1)[C@@H]1[C@@H]2CC[C@]2(C)[C@@H](O)CC[C@@H]12 (some centres not stated)		> 10000			
CN(C)C(=O)CCCCCCCC1C[C@H]2CC(=O)CC[C@]2(C)[C@H]2CC[C@]3(C)[C@@H](O)CC[C@H]3[C@H]12 (some centres not stated)	6.72	> 10000	6.59	Active	Active
CCN(CC)C(=O)CCCCCCCC1C[C@H]2CC(=O)CC[C@]2(C)[C@H]2CC[C@]3(C)[C@@H](O)CC[C@H]3[C@H]12 (some centres not stated)	6.52	> 10000	6.92		
CN(C)C(=O)CCCCCCC1C[C@H]2CC(=O)CC[C@]2(C)[C@H]2CC[C@]3(C)[C@@H](O)CC[C@H]3[C@H]12 (some centres not stated)	6.70	490	6.96		
CCCCN(C)C(=O)CCCCCCCCCCC[C@@H]1CC2CC(=O)CC[C@]2(C)[C@H]2CC[C@]3(C)[C@@H](O)CC[C@H]3[C@H]12 (some centres not stated)	5.46	9900	5.00		
CNC(=O)CCCCCCCC1C[C@H]2CC(=O)CC[C@]2(C)[C@H]2CC[C@]3(C)[C@@H](O)CC[C@H]3[C@H]12 (some centres not stated)	6.32	> 10000	6.15		
CN(Cc1ccccc1)C(=O)CCCCCCCC1C[C@H]2CC(=O)CC[C@]2(C)[C@H]2CC[C@]3(C)[C@@H](O)CC[C@H]3[C@H]12 (some centres not stated)		> 10000			
CCCCCCNC(=O)CCCCCCCC1C[C@H]2CC(=O)CC[C@]2(C)[C@H]2CC[C@]3(C)[C@@H](O)CC[C@H]3[C@H]12 (some centres not stated)	5.18	> 10000	5.68		
C[C@]12CCC(=O)C[C@@H]1CC(CCCCCCCC(=O)N1CCCC1)[C@@H]1[C@@H]2CC[C@]2(C)[C@@H](O)CC[C@@H]12 (some centres not stated)	6.52	> 10000	6.46		
CCCCN(C)C(=O)CCCCCCCC[C@@H]1CC2CC(=O)CC[C@]2(C)[C@H]2CC[C@]3(C)[C@@H](O)CC[C@H]3[C@H]12 (some centres not stated)	5.47	550	6.26		
C[C@]12CCC(=O)C[C@@H]1CC(CCCCCCCC(=O)N1CCOCC1)[C@@H]1[C@@H]2CC[C@]2(C)[C@@H](O)CC[C@@H]12 (some centres not stated)		> 10000			
C[C@]12CC[C@H]3[C@@H]([C@H](CCCCCCCCCCCCC[S+]([O-])CCCC(F)(F)C(F)(F)F)CC4CC(=O)CC[C@@]43C)[C@@H]1CC[C@@H]2O (some centres not stated)	5.00	> 10000	< 5.00		
C[C@]12CC[C@H]3[C@@H]([C@H](CCCCCCC[S+]([O-])CCCC(F)(F)C(F)(F)F)CC4CC(=O)CC[C@@]43C)[C@@H]1CC[C@@H]2O (some centres not stated)	< 5.00	200	6.02		
CCCCN(C)C(=O)CCCCCCCCCC[C@@H]1CC2CC(=O)CC[C@]2(C)[C@H]2CC[C@]3(C)[C@@H](O)CC[C@H]3[C@H]12 (some centres not stated)	5.89	1900	5.72		
CCCCN(C)C(=O)CCCCCCC[C@@H]1CC2CC(=O)CC[C@]2(C)[C@H]2CC[C@]3(C)[C@@H](O)CC[C@H]3[C@H]12 (some centres not stated)	6.47	280	6.55		
CCN(CC)C(=O)CCCCCCC1C[C@H]2CC(=O)CC[C@]2(C)[C@H]2CC[C@]3(C)[C@@H](O)CC[C@H]3[C@H]12 (some centres not stated)	6.28	1700	6.48		
C[C@]12CCC(=O)C[C@@H]1CC(CCCCCCCC(N)=O)[C@@H]1[C@@H]2CC[C@]2(C)[C@@H](O)CC[C@@H]12 (some centres not stated)	6.35	2400	6.59		
CCCCCCN(CCCCCC)C(=O)CCCCCCCC1C[C@H]2CC(=O)CC[C@]2(C)[C@H]2CC[C@]3(C)[C@@H](O)CC[C@H]3[C@H]12 (some centres not stated)	< 5.00	> 10000	< 5.00		
CCCCNC(=O)CCCCCCCC1C[C@H]2CC(=O)CC[C@]2(C)[C@H]2CC[C@]3(C)[C@@H](O)CC[C@H]3[C@H]12 (some centres not stated)	5.20	1600			
CCCCN(C)C(=O)CCCCCCCC1C[C@H]2CC(=O)CC[C@]2(C)[C@H]2CC[C@]3(C)[C@@H](O)CC[C@H]3[C@H]12 (some centres not stated)	6.47	> 10000	6.55		
C[C@]12CC[C@H]3[C@@H]([C@H](CCCCC[S+]([O-])CCCC(F)(F)C(F)(F)F)CC4CC(=O)CC[C@@]43C)[C@@H]1CC[C@@H]2O (some centres not stated)	< 5.00	16	5.17		
CCCCN(C)C(=O)CCCCCCCCC[C@@H]1CC2CC(=O)CC[C@]2(C)[C@H]2CC[C@]3(C)[C@@H](O)CC[C@H]3[C@H]12 (some centres not stated)	5.74	570	6.24		
CC(C)N(C)C(=O)CCCCCCCC1C[C@H]2CC(=O)CC[C@]2(C)[C@H]2CC[C@]3(C)[C@@H](O)CC[C@H]3[C@H]12 (some centres not stated)	6.38	> 10000	6.37		
C[C@]12CC[C@H]3[C@@H]([C@H](CCCCCCCCCCC[S+]([O-])CCCC(F)(F)C(F)(F)F)CC4CC(=O)CC[C@@]43C)[C@@H]1CC[C@@H]2O (some centres not stated)	< 5.00	> 10000	< 5.00		
CCCNC(=O)CCCCCCCC1C[C@H]2CC(=O)CC[C@]2(C)[C@H]2CC[C@]3(C)[C@@H](O)CC[C@H]3[C@H]12 (some centres not stated)	5.74	> 10000	5.80		
